Where two headings read alike, the source gives them in different places.
How the values were obtained:
hCA I = biological target: T1, hCA I (Homo sapiens, UniProt P00915); assay: esterase inhibition assay; assay type: biochemical
T1 construct: gene CA1; native enzyme purified from human blood; cytosolic isoform
Source text: esterase inhibition assay on hCA I

hCA II = biological target: T2, hCA II (Homo sapiens, UniProt P00918); assay: esterase inhibition assay; assay type: biochemical
T2 construct: gene CA2; native enzyme purified from human blood; cytosolic isoform
Source text: esterase inhibition assay on hCA II

[1] = substrate 4-nitrophenyl acetate

T1 sequence (P00915 2-261): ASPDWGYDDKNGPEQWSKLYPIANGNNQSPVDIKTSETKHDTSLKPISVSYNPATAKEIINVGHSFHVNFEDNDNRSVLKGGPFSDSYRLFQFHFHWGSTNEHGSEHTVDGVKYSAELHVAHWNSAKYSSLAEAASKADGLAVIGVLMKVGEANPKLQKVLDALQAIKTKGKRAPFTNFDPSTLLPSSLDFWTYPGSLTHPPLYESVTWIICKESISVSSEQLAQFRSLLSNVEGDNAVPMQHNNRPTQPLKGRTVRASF

Structure (SMILES)	Ki (hCA I) [nM]	Ki (hCA II) [nM]	Ki (hCA I; [1]) [nM]	Ki (hCA II; [1]) [nM]
NS(=O)(=O)c1cccc(N=NNc2ccccc2)c1 [compound 1, 3–(3-Pheynltriaz-1-en-1-yl)benzenesulfonamide]	28 ± 6	18 ± 5		
NS(=O)(=O)c1cccc(N=NNc2ccc(F)cc2)c1 [compound 2, 3-(3-(4-Fluorophenyl)triaz-1-en-1-yl) benzenesulfonamide]		21 ± 9	21 ± 4	
NS(=O)(=O)c1cccc(N=NNc2ccc(Br)cc2)c1 [compound 3, 3-(3-(4-Bromophenyl)triaz-1-en-1-yl) benzenesulfonamide]	57 ± 3	19 ± 4		
CCOc1ccc(NN=Nc2cccc(S(N)(=O)=O)c2)cc1 [compound 4, 3-(3-(4-Ethoxyphenyl)triaz-1-en-1-yl) benzenesulfonamide]	38 ± 4			16 ± 6
COc1ccc(/N=N/Nc2cccc(S(N)(=O)=O)c2)cc1 [compound 5, 3-(3-(4-Methoxyphenyl)triaz-1-en-1-yl) benzenesulfonamide]	42 ± 8	21 ± 4		
CCc1ccc(NN=Nc2cccc(S(N)(=O)=O)c2)cc1 [compound 6, 3-(3-(4-Ethylphenyl)triaz-1-en-1-yl) benzenesulfonamide]	49 ± 2	16 ± 2		
NS(=O)(=O)c1cccc(N=NNc2cccc(Cl)c2)c1 [compound 7, 3-(3-(3-Chlorophenyl)triaz-1-en-1-yl) benzenesulfonamide]	53 ± 15	22 ± 6		
NS(=O)(=O)c1cccc(N=NNc2cccc(F)c2)c1 [compound 8, 3-(3-(3-Fluorophenyl)triaz-1-en-1-yl) benzenesulfonamide]	36 ± 3	28 ± 6		
COc1cccc(NN=Nc2cccc(S(N)(=O)=O)c2)c1 [compound 9, 3-(3-(3-Methoxyphenyl)triaz-1-en-1-yl) benzenesulfonamide]	33 ± 5	23 ± 2		
NS(=O)(=O)c1cccc(N=NNc2ccccc2Cl)c1 [compound 10, 3-(3-(2-Chlorophenyl)triaz-1-en-1-yl) benzenesulfonamide]	46 ± 12	20 ± 5		
NS(=O)(=O)c1cccc(N=NNc2ccccc2F)c1 [compound 11, 3-(3-(2-Fluorophenyl)triaz-1-en-1-yl) benzenesulfonamide]	72 ± 2	33 ± 9		
NS(=O)(=O)c1cccc(N=NNc2ccccc2Br)c1 [compound 12, 3-(3-(2-Bromophenyl)triaz-1-en-1-yl) benzenesulfonamide]	61 ± 1	40 ± 2		

Source: PMC6913647, “Novel sulphonamides incorporating triazene moieties show powerful carbonic anhydrase I and II inhibitory properties” (Journal of Enzyme Inhibition and Medicinal Chemistry, 2019)
